# Test results reported in ChEMBL document CHEMBL1125599, “Cholinergic activity of acetylenic imidazoles and related compounds” (J Med Chem, 1991).
# Assays:
# Mus musculus [1] = assay: ED50 value as cholinergic agonism by measuring lacrimation in mice (in vivo); type: functional
# Mus musculus [2] = assay: ED50 value determined as oxotremorine antagonism by measuring salivation in mice (in vivo); type: functional
# Mus musculus [3] = assay: ED50 value determined as oxotremorine antagonism by measuring lacrimation in mice (in vivo); type: functional
# Mus musculus [4] = assay: ED50 value as cholinergic agonist by measuring salivation in mice (in vivo); type: functional
# Mus musculus [5] = assay: ED50 value as cholinergic agonist by measuring tremors in mice (in vivo); type: functional
# [6] = target: Muscarinic acetylcholine receptor (Rattus norvegicus) (UniProt P08482+P08483+P08485+P08911+P10980); assay: Ratio of Ki value for QNB to that of Ki value for Oxo-M.; type: protein assay
# [7] = target: Muscarinic acetylcholine receptor; assay: Binding affinity to muscarinic acetylcholine receptor was determined in presence of [3H]QNB radioligand (in vitro); type: protein assay
# [8] = target: Muscarinic acetylcholine receptor; assay: Binding affinity to muscarinic acetylcholine receptor was determined in presence of [3H]OXO-M radioligand (in vitro); type: protein assay
# Mus musculus [9] = assay: ED50 value determined as oxotremorine antagonism by measuring tremors in mice (in vivo); type: functional
Ki ratio [6],Ki [7] [nM],Ki [8] [nM],SMILES,ED50 (Mus musculus [1]) [mg/kg],ED50 (Mus musculus [2]) [mg/kg],ED50 (Mus musculus [3]) [mg/kg],ED50 (Mus musculus [4]) [mg/kg],ED50 (Mus musculus [5]) [mg/kg],ED50 (Mus musculus [9]) [mg/kg]
7.4,171,23,CC1CCC(=O)N1CC#CCn1ccnc1 (stereo not drawn),> 100,1.1,0.54,> 100,> 100,–
–,> 10000,213,CC(=O)NCC#CCn1cncc1C,66,66,66,> 100,–,> 100
–,> 10000,82,Cc1cncn1CC#CCN(C)C(=O)N(C)C,> 100,11.8,9.7,–,45.2,> 100
–,> 10000,187,CC(=O)NCC#CCn1ccnc1,> 100,> 100,> 100,> 100,–,> 100
–,> 10000,> 10000,O=C1CCCN1CC#CCn1cccn1,> 100,> 100,> 100,> 100,> 100,> 100
–,> 10000,62,O=C1NCCN1CC#CCn1ccnc1,30,> 100,> 100,17.3,–,> 100
–,> 10000,> 10000,O=C1CCCN1CC#CCn1cncn1,> 100,> 100,> 100,> 100,> 100,> 100
–,> 10000,35,Cn1ccn(CC#CCn2ccnc2)c1=O,4.4,> 100,> 100,3.7,4.5,–
17,556,33.5,CC(C#CCn1ccnc1)N1CCCC1=O (stereo not drawn),> 100,3.7,2,> 100,> 100,–
–,> 10000,> 10000,O=C1CCCN1CC#CCn1cnc2ccccc21,> 100,> 100,80,> 100,> 100,> 100
–,> 10000,1.92,CC(=O)N(C)CC#CCn1ccnc1,1.4,> 100,> 100,1.4,0.97,–
460,600,1.3,O=C1CCCN1CC#CCn1ccnc1,0.45,> 100,> 100,0.45,0.45,–
–,> 10000,14.6,CN(C)C(=O)N(C)CC#CCn1ccnc1,–,> 100,11.8,25.4,11.8,> 100
2.4,160,68,Cc1cn(CC#CCN2CCCC2=O)c(C)n1,> 100,14.2,8,> 100,> 100,–
–,> 10000,138,Cc1cncn1CC#CCN1CCNC1=O,> 100,66,21,> 100,–,> 100
–,> 10000,10.2,COC(=O)N(C)CC#CCn1ccnc1,4.5,> 100,> 100,4.5,2,–
2,56.9,29.1,CCc1nccn1CC#CCN1CCCC1=O,> 100,2.5,0.54,> 100,> 100,–
18,184,10,CC(=O)N(C)C(C)C#CCn1cncc1C (stereo not drawn),> 100,3.7,1.1,> 100,> 100,–

# Second part, the compound before the results:
SMILES,Ki ratio [6],Ki [7] [nM],Ki [8] [nM],ED50 (Mus musculus [1]) [mg/kg],ED50 (Mus musculus [2]) [mg/kg],ED50 (Mus musculus [3]) [mg/kg],ED50 (Mus musculus [4]) [mg/kg],ED50 (Mus musculus [5]) [mg/kg],ED50 (Mus musculus [9]) [mg/kg]
COC(=O)N(C)C(C)C#CCN(C)C (stereo not drawn),–,> 10000,16,17.3,> 100,> 100,17.3,11.8,> 100
CC(C#CCN1CCCC1)N1CCN(C)C1=O (stereo not drawn),10,130,13,> 30,25,4.5,> 30,> 30,–
CN(C)CC#CCN1CCCC1=O,2360,2600,1.1,–,–,–,–,–,–
CC(=O)N(C)C(C)C#CCn1ccnc1 (stereo not drawn),125,1500,12,3,> 100,> 100,3,2,–
COC(=O)N(C)CC#CCN(C)C,–,> 10000,19,9.7,> 30,> 30,14.3,17.3,> 30
O=C1CCCN1CC#CCN1CCCC1 [OXOTREMORINE],386,193,–,0.28,–,–,0.221,–,–
CN(C)CC#CCN1CCN(C)C1=O,40,180,4.5,0.54,> 10,> 10,0.54,0.37,–
Cn1ccn(CC#CCN2CCCC2)c1=O,72,510,7.1,6.6,> 10,> 10,6.6,3.7,–
CN1CCN(CC#CCN2CCCC2)C1=O,67,180,2.7,0.3,> 3,> 3,0.21,0.14,–
CN(C)CC#CCn1ccn(C)c1=O,–,> 10000,37,8,> 100,> 100,8,5.4,–
CC(=O)N(C)C(C)C#CCN1CCCC1 (stereo not drawn),–,–,–,0.66,> 10,> 10,0.55,> 10,–
CN(C)CC#CCN1CCNC1=O,–,> 10000,43,9.7,> 100,> 100,9.7,9.7,–
CC(=O)N(C)C(C)C#CCn1ccnc1C (stereo not drawn),12,19,1.6,> 100,0.2,0.05,> 100,> 100,–
CN1CCN(CC#CCn2ccnc2)C1=O,890,1868,2.1,1.4,> 100,> 100,1.4,0.97,–
